Data published in patent US20180353460A1, “METHODS OF TREATING UROLOGICAL DISORDERS USING SARMs” (priority 2014, published 2018).
“And” between values parts separate entries of the source, which are not always exact repeats. Equal values may be shown once.

Columns and labels:
Format in all cases: in vivo, rat
[1] = system: prostate, seminal vesicles and levator ani muscle; test: Androgenic and anabolic activity in castrated (ORX) male rats, daily oral gavage for fourteen days; conditions: castrated rats, comparators
Protocol: Male Sprague-Dawley rats weighing approximately 200 g were purchased from Harlan Bioproducts for Science (Indianapolis, Ind.). […] The anabolic and androgenic activity of compound of Formula VIII in intact animals was tested, as well as a dose response evaluation in acutely orchidectomized (ORX) animals. Regenerative effects of the compound of Formula VIII in chronically (9 days) ORX rats was similarly evaluated.
The test article for this study was weighed and dissolved in 10% DMSO (Fisher) diluted with PEG 300 (Acros Organics, NJ) for preparation of the appropriate dosage concentrations. […] Animals were randomly assigned to one of seven groups consisting of 4 to 5 animals per group. Control groups (intact and ORX) were administered vehicle daily. Compound of Formula VIII was administered via oral gavage at doses of 0.01, 0.03, 0.1, 0.3, 0.75, and 1 mg/day to both intact and ORX groups. Where appropriate, animals were castrated on day one of the study. Treatment with compound of Formula VIII began nine days post ORX and was administered daily via oral gavage for fourteen days.
(§1) In addition, ventral prostate, seminal vesicles, and levator ani muscle were removed, individually weighed, normalized to body weight, and expressed as a percentage of intact control. Student's T-test was used to compare individual dose groups to the intact control group. Significance was defined a priori as a P-value <0.05. Ventral prostate and seminal vesicle weights were evaluated as a measure of androgenic activity, whereas levator ani muscle weight was evaluated as a measure of anabolic activity. Blood was collected from the abdominal aorta, centrifuged, and sera were frozen at −80° C. prior to determination of serum hormone levels. Serum luteinizing hormone (LH) and follicle stimulating hormone (FSH) concentrations were determined.
Male Sprague-Dawley rats weighing approximately 200 g were purchased from Harlan Bioproducts for Science (Indianapolis, Ind.). […] Anabolic and androgenic activity of compound of Formula IX in intact animals was evaluated, and the dose response in acutely orchidectomized (ORX) animals was evaluated as well. Regenerative effects of compound of Formula IX in chronically (9 days) ORX rats were also assessed.
The compound was weighed and dissolved in 10% DMSO (Fisher) diluted with PEG 300 (Acros Organics, NJ) for preparation of the appropriate dosage concentrations. […] Intact and ORX animals were randomly assigned to one of seven groups consisting of 4 to 5 animals per group. Control groups (intact and ORX) were administered vehicle daily. Compound of Formula IX was administered via oral gavage at doses of 0.01, 0.03, 0.1, 0.3, 0.75, and 1 mg/day to both intact and ORX groups.
as §1, with “Castrated animals (on day one of the study) were randomly assigned to dose groups (4-5 animals/group) of 0.01, 0.03, 0.1, 0.3, 0.75, and 1 mg/day, for dose-response evaluation. Dosing began nine days post ORX and was administered daily via oral gavage for fourteen days. […] In” for “In”, “As a measure of androgenic activity, ventral” for “Ventral”, “evaluated,” for “evaluated as a measure of androgenic activity,”, “lutenizing” for “luteinizing”
Male Sprague-Dawley rats weighing approximately 200 g were purchased from Harlan Bioproducts for Science (Indianapolis, Ind.).

[2] = system: prostate, seminal vesicles and levator ani muscle; test: Androgenic and anabolic activity in castrated immature male rats, subcutaneous osmotic pumps, 14 days; conditions: castrated rats, 14 days, FIG. 2
Protocol: Immature male Sprague-Dawley rats, weighing 90 to 100 g, were purchased from Harlan Biosciences (Indianapolis, Ind.). The animals were maintained on a 12 hour light-dark cycle with food and water available ad libitum.
Rats were randomly distributed into treatment groups groups. One day prior to the start of drug treatment, animals were individually removed from the cage, weighed and anesthetized with an intraperitoneal dose of ketamine/xylazine (87/13 mg/kg; approximately 1 mL per kg). When appropriately anesthetized (i.e., no response to toe pinch), the animals' ears were marked for identification purposes. Animals were then placed on a sterile pad and their abdomen and scrotum washed with betadine and 70% alcohol. The testes were removed via a midline scrotal incision, with sterile suture being used to ligate supra-testicular tissue prior to surgical removal of each testis. The surgical wound site was closed with sterile stainless steel wound clips, and the site cleaned with betadine. The animals were allowed to recover on a sterile pad (until able to stand) and then returned to their cage.
Twenty-four hours later, animals were re-anesthetized with ketamine/xylazine, and an Alzet osmotic pump(s) (model 2002) was placed subcutaneouly in the scapular region. In this instance, the scapular region was shaved and cleaned (betadine and alcohol) and a small incision (1 cm) made using a sterile scalpel. The osmotic pump was inserted and the wound closed with a sterile stainless steel wound clip. Animals were allowed to recover and were returned to their cage. Osmotic pumps contained the appropriate treatment dissolved in polyethylene glycol 300 (PEG300). Osmotic pumps were filled with the appropriate solution one day prior to implantation. Animals were monitored daily for signs of acute toxicity to drug treatment (e.g., lethargy, rough coat).
After 14 days of drug treatment, rats were anesthetized with ketamine/xylazine. Animals were then sacrificed by exsanguinations under anesthesia. A blood sample was collected by venipuncture of the abdominal aorta, and submitted for complete blood cell analysis. A portion of the blood was placed in a separate tube, centrifuged at 12,000 g for 1 minute, and the plasma layer removed and frozen at −20° C. The ventral prostates, seminal vesicles, levator ani muscle, liver, kidneys, spleen, lungs, and heart were removed, cleared of extraneous tissue, weighed, and placed in vials containing 10% neutral buffered formalin. Preserved tissues were sent for histopathological analysis.
For data analysis, the weights of all organs were normalized to body weight, and analyzed for any statistical significant difference by single-factor ANOVA. The weights of prostate and seminal vesicle were used as indexes for evaluation of androgenic activity, and the levator ani muscle weight was used to evaluate the anabolic activity.

[3] = system: prostate, seminal vesicles and levator ani muscle; test: Androgenic and anabolic effects in intact, hemi-orchidectomized and castrated rats, subdermal osmotic pumps, 14 days; conditions: 0.5 mg/day; for Levator Ani weight / prostate weight / seminal vesicle weight: n = 5
Protocol: Male Sprague-Dawley rats were purchased from Harlan Biosciences (Indianapolis, Ind.). The animals were maintained on a 12 h cycle of light and dark with food and water available ad libitum. All animal studies were reviewed and approved. Immature male Sprague-Dawley rats weighing 187 to 214 g were randomly distributed into 9 groups of 5 animals. One day before the initiation of drug treatment, groups 4 through 6 and groups 7 through 9 received unilateral or bilateral orchidectomy, respectively, via a midline scrotal incision. […] All drugs given to animals were freshly prepared as solutions in polyethylene glycol 300 (PEG 300). Groups 4 and 7 received treatment with vehicle alone (i.e., PEG 300). […] Animals in groups 2, 5, and 8 received compound of Formula XII (0.5 mg/day) via implantation of subdermal osmotic pumps. After 14 days of drug treatment, rats were weighed, anesthetized, and sacrificed. The ventral prostates, seminal vesicles, and levator ani muscle were removed and weighed. Osmotic pumps were also removed from animals to check for correct pump operation. The weights of all organs were normalized to body weight, and analyzed for any statistically significant differences between groups using single-factor ANOVA with the alpha value set a priori at p<0.05. The weights of prostates and seminal vesicles were used as indices for evaluation of androgenic activity, and the levator ani muscle weight was used to evaluate the anabolic activity. Statistical analyses of parameters from complete blood count or serum chemical profiling, wherever applicable, were performed by single-factor ANOVA with the alpha value set a priori at p<0.05.

[4] = system: prostate, seminal vesicles and levator ani muscle; test: Androgenic and anabolic activity in intact male rats, daily oral gavage
Protocol: Male Sprague-Dawley rats weighing approximately 200 g were purchased from Harlan Bioproducts for Science (Indianapolis, Ind.). The animals were maintained on a 12 h light/dark cycle with food (7012C LM-485 Mouse/Rat Sterilizable Diet, Harlan Teklad, Madison, Wis.) and water available ad libitum. The anabolic and androgenic activity of compound of Formula VIII in intact animals was tested, as well as a dose response evaluation in acutely orchidectomized (ORX) animals. Regenerative effects of the compound of Formula VIII in chronically (9 days) ORX rats was similarly evaluated.
The test article for this study was weighed and dissolved in 10% DMSO (Fisher) diluted with PEG 300 (Acros Organics, NJ) for preparation of the appropriate dosage concentrations. The animals were housed in groups of 2 to 3 animals per cage. Animals were randomly assigned to one of seven groups consisting of 4 to 5 animals per group. Control groups (intact and ORX) were administered vehicle daily. Compound of Formula VIII was administered via oral gavage at doses of 0.01, 0.03, 0.1, 0.3, 0.75, and 1 mg/day to both intact and ORX groups. Where appropriate, animals were castrated on day one of the study. Treatment with compound of Formula VIII began nine days post ORX and was administered daily via oral gavage for fourteen days.
as §1, with “The animals were sacrificed under anesthesia (ketamine/xyalzine, 87:13 mg/kg) and body weights were recorded. In” for “In”
Male Sprague-Dawley rats weighing approximately 200 g were purchased from Harlan Bioproducts for Science (Indianapolis, Ind.). The animals were maintained on a 12 h light/dark cycle with food (7012C LM-485 Mouse/Rat Sterilizable Diet, Harlan Teklad, Madison, Wis.) and water available ad libitum. Anabolic and androgenic activity of compound of Formula IX in intact animals was evaluated, and the dose response in acutely orchidectomized (ORX) animals was evaluated as well. Regenerative effects of compound of Formula IX in chronically (9 days) ORX rats were also assessed.
The compound was weighed and dissolved in 10% DMSO (Fisher) diluted with PEG 300 (Acros Organics, NJ) for preparation of the appropriate dosage concentrations. The animals were housed in groups of 2 to 3 animals per cage. Intact and ORX animals were randomly assigned to one of seven groups consisting of 4 to 5 animals per group. Control groups (intact and ORX) were administered vehicle daily. Compound of Formula IX was administered via oral gavage at doses of 0.01, 0.03, 0.1, 0.3, 0.75, and 1 mg/day to both intact and ORX groups.
Castrated animals (on day one of the study) were randomly assigned to dose groups (4-5 animals/group) of 0.01, 0.03, 0.1, 0.3, 0.75, and 1 mg/day, for dose-response evaluation. Dosing began nine days post ORX and was administered daily via oral gavage for fourteen days. The animals were sacrificed under anesthesia (ketamine/xyalzine, 87:13 mg/kg) after a 14-day dosing regimen, and body weights were recorded. In addition, ventral prostate, seminal vesicles, and levator ani muscle were removed, individually weighed, normalized to body weight, and expressed as a percentage of intact control. Student's T-test was used to compare individual dose groups to the intact control group. […]

Structure (SMILES)	maximal stimulation of levator ani muscle weight [1] [%]	Levator Ani weight ([3]; Castrated rats)	prostate weight ([3]; Castrated rats)	seminal vesicle weight ([3]; Castrated rats)	Levator Ani weight ([3]; Hemi-castrated rats)	prostate weight ([3]; Hemi-castrated rats)	seminal vesicle weight ([3]; Hemi-castrated rats)	Levator Ani weight ([3]; Intact rats)	prostate weight ([3]; Intact rats)	seminal vesicle weight ([3]; Intact rats)	other results
CCC(=O)O[C@H]1CC[C@H]2[C@@H]3CCC4=CC(=O)CC[C@]4(C)[C@H]3CC[C@]12C [TP, testosterone propionate, reference compound]	104	87.27 ± 10.25 % of intact control	76.78 ± 10.43 % of intact control	63.48 ± 17.05 % of intact control	98.63 ± 10.47 % of intact control	98.57 ± 7.98 % of intact control	114.19 ± 23.81 % of intact control	95.61 ± 9.34 % of intact control	97.45 ± 10.82 % of intact control	103.95 ± 13.23 % of intact control	weights of prostate, seminal vesicle and levator ani muscle [2]: increased the weights of prostate, seminal vesicle, and levator ani muscle in castrated rats in a dose-dependent manner
CC(=O)Nc1ccc(OC[C@](C)(O)C(=O)Nc2ccc([N+](=O)[O-])c(C(F)(F)F)c2)cc1 [XII, S-3-(4-acetylaminophenoxy)-2-hydroxy-2-methyl-N-(4-nitro-3-trifluoromethylphenyl) propionamide]	101	100.65 ± 10.86 % of intact control	32.55 ± 11.65 % of intact control	16.47 ± 5.21 % of intact control	108 % of intact control and 108.10 ± 8.92 % of intact control	75 % of intact control and 74.69 ± 8.44 % of intact control	79 % of intact control and 78.55 ± 13.58 % of intact control	109.15 ± 14.68 % of intact control	79 % of intact control and 79.41 ± 9.32 % of intact control	90.54 ± 12.10 % of intact control	adverse pharmacologic effects [3]: No adverse pharmacologic effects were observed
C[C@](O)(COc1ccc(Cl)c(F)c1)C(=O)Nc1ccc(C#N)c(C(F)(F)F)c1 [XIV, (S)-3-(4-chloro-3-fluorophenoxy)-N-(4-cyano-3-(trifluoromethyl)phenyl)-2-hydroxy-2-methylpropanamide]											levator ani muscle weight ([4]; 0.01 mg/day): 100%±10%; prostate weight ([4]; 0.01 mg/day): 117%±20%; levator ani muscle weight ([4]; 0.03 mg/day): 98%±7%; prostate weight ([4]; 0.03 mg/day): 98%±15%; levator ani muscle weight ([4]; 0.1 mg/day): 110%±5%; prostate weight ([4]; 0.1 mg/day): 82%±20%; levator ani muscle weight ([4]; 0.3 mg/day): 110%±5%; prostate weight ([4]; 0.3 mg/day): 62%±5%; levator ani muscle weight ([4]; 0.75 mg/day): 125%±10%; prostate weight ([4]; 0.75 mg/day): 107%±30%; levator ani muscle weight ([4]; 1 mg/day): 129%±10%; prostate weight ([4]; 1 mg/day): 110%±14%
